The values that follow come from patent publication US20230183237A1, “COMPETITIVE AND NONCOMPETITIVE INHIBITORS OF THE MUSCARINIC ACETYLCHOLINE RECEPTOR M5” (Vanderbilt University, priority 2020, published 2023).

This assay concerns the target T1, hM5 (Homo sapiens, UniProt P08912).
T1 construct: expressed in transfected cells
T1 sequence (P08912 1-532): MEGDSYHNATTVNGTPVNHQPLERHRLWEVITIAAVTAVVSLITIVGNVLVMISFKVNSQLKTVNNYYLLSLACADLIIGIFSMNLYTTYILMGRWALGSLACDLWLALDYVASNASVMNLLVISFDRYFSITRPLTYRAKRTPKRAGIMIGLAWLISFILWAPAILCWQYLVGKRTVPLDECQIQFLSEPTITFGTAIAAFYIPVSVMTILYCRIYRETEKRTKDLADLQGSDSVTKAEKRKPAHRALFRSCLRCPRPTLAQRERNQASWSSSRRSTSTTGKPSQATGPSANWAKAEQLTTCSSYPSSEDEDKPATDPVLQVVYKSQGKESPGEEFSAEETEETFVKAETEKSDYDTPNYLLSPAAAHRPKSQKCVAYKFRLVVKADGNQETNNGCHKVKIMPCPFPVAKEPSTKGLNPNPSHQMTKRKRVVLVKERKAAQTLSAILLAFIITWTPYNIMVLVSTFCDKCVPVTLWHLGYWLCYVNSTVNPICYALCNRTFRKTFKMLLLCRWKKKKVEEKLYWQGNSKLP
The assay can be described thus: Calcium mobilization concentration-response (IC50 vs EC80 acetylcholine), CHO hM5. The format is cell-based. Conditions: CELL LINE hM5, read-out: IC50. The protocol:
Initial, single point (10 μM) compound characterization was performed in stable Chinese Hamster Ovary (CHO) cell lines constitutively expressing human M5 receptors. These were plated at 15,000 cells per 20 μL per well in Greiner 384-well black-walled, TC-treated, clear-bottomed plates (Fisher) in Ham's F12 medium supplemented with 10% FBS and 20 mM HEPES. Cells were incubated overnight at 37° C. under 5% CO2. The following day, medium was exchanged with assay buffer (Hank's Balanced Salt Solution supplemented with 20 mM HEPES and 2.5 mM Probenecid, pH 7.4) leaving 20 μL of assay buffer in each well. […] The cells were then incubated 50 minutes at 37° C. under 5% CO2. The assay buffer plus dye was then exchanged with fresh assay buffer leaving a volume of 20 μL in each well. Test compounds were diluted into assay buffer to a 2X (20 μM) concentration in 0.2% dimethylsulfoxide (DMSO) in columns 3-22 with matching DMSO concentration in columns 1, 2, 23, and […]; compounds were added to the assay for a final concentration of 10 μM and a final DMSO concentration of 0.1%.
Either an FDSS (Hamamatsu) or Panoptic (WaveFront Biosciences) kinetic imaging plate reader was used for assay execution and measurement of calcium flux. After establishing baseline fluorescence, test compounds (20 μL) were added to the cells using the reader's integrated pipettor and allowed to equilibrate for 140 seconds before addition of the […] concentration of acetylcholine (10 μL) along with vehicle in selected DMSO-only wells in the outer two columns . […] The raw fluorescence data from each well was normalized to the corresponding initial fluorescence reading (static ratio). The maximum fluorescence value following each addition was determined and the minimum value within that same timeframe was subtracted for each well then normalized to the average of the ECffiax maximum-minimum response, providing a % AChmax value for each addition for each well. The single point values represent mean values determined within the ECsu addition timeframe obtained from at least three independent determinations performed in triplicate or greater (error bars represent +/−SEM) unless otherwise specified.
CHO cells stably expressing hM1, hM2/Gqi5, hM3, hM4/Gqi5, hM5, rM1/Gqi5, rM3, rM4/Gqi5, or rM5 were plated in the manner described above. […] FDSS protocols were carried out as described above; the static ratio was calculated and the minimum response subtracted from the maximum response within the timeframe of each addition. This max-min response was then normalized to the maximum acetylcholine response. Calculation of IC50 was performed using the percent maximum acetylcholine response for the EC80 addition through the Vortex and Studies modules of the Dotmatics data management software. Results are stored in the Dotrnatics database and an audit trail of any changes to their analysis is generated. Data shown represent mean values obtained from at least three independent determinations performed in triplicate or greater (error bars represent±SEM) unless otherwise specified.
(Calcium assays in cells follow changes in intracellular calcium, usually with a dye or a luminescent sensor.)

The mark [1] stands for this setting: calcium mobilization, EC80 acetylcholine addition.

The structures appear in SMILES notation. Where two headings read alike, the source gives them in different places.

For orientation: IC50 means the midpoint of a concentration-inhibition curve. For the molecule `Cc1cc2ncnn2cc1[C@@H]1CCN(S(=O)(=O)c2cn(C)nc2C)C[C@H]1F` (racemic) [Compound 172, (rac)-6-(trans-1-((1,3-dimethyl-1H-pyrazol-4-yl)sulfonyl)-3-fluoropiperidin-4-yl)-7-methyl-[1,2,4]triazolo[1,5-a]pyridine], under setting [1], the IC50 worked out at 275 nM.
The same measure, in the same setting: as for `Cc1cc2ncnn2cc1[C@@H]1CCN(S(=O)(=O)c2cnn(C)c2C)C[C@H]1F` (racemic) [Compound 174, (rac)-6-(trans-1-((1,5-Dimethyl-1H-pyrazol-4-yl)sulfonyl)-3-fluoropiperidin-4-yl)-7-methyl-[1,2,4]triazolo[1,5-a]pyridine], the figure is 20 nM.
Same read-out and setting: with `Cc1cc2ncnn2cc1[C@@H]1CCN(S(=O)(=O)c2cnn(C)c2C)C[C@H]1O` (racemic) [Compound 197, (rac)-trans-1-((1,5-dimethyl-1H-pyrazol-4-yl)sulfonyl)-4-(7-methyl-[1,2,4]triazolo[1,5-a]pyridin-6-yl)piperidin-3-ol] the figure was 594 nM.
On the same count and under the same terms, as for `Cc1cc2ncnn2cc1[C@@H]1CCN(S(=O)(=O)c2cnn3c2CCCC3)C[C@H]1O` (racemic) [Compound 270, (rac)-trans-4-(7-methyl-[1,2,4]triazolo[1,5-a]pyridin-6-yl)-1-((4,5,6,7-tetrahydropyrazolo[1,5-a]pyridin-3-yl)sulfonyl)piperidin-3-ol], the figure is 105 nM; as for `Cc1cc2ncnn2cc1[C@@H]1CCN(S(=O)(=O)c2cnn(C)c2Cl)C[C@H]1O` (racemic) [Compound 282, (rac)-trans-1-((5-Chloro-1-methyl-1H-pyrazol-4-yl)sulfonyl-4-(7-methyl-[1,2,4]triazolo[1,5-a]pyridin-6-yl)piperidin-3-ol], 103 nM.
As to `CO[C@@H]1CN(S(=O)(=O)c2cnn(C)c2C)CC[C@H]1c1cn2ncnc2cc1C` (racemic) [Compound 411, (rac)-6-(trans-1-((1,5-dimethyl-1H-pyrazol-4-yl)sulfonyl)-3-methoxypiperidin-4-yl)-7-methyl-[1,2,4]triazolo[1,5-a]pyridine], under “vs EC80 acetylcholine”, the IC50 amounted to 288 nM.
Consider `CO[C@@H]1CN(S(=O)(=O)c2cnn(C)c2Cl)CC[C@H]1c1cn2ncnc2cc1C` (racemic) [Compound 413, (rac)-6-(trans-1-((5-chloro-1-methyl-1H-pyrazol-4-yl)sulfonyl)-3-methoxypiperidin-4-yl)-7-methyl-[1,2,4]triazolo[1,5-a]pyridine], for which, where the note is “vs EC80 acetylcholine”, the IC50 came out at 268 nM.
The same measure, in the same setting: with `CO[C@@H]1CN(S(=O)(=O)c2cnn3c2OCCC3)CC[C@H]1c1cn2ncnc2cc1C` (racemic) [Compound 414, (rac)-3-((trans-3-methoxy-4-(7-methyl-[1,2,4]triazolo[1,5-a]pyridin-6-yl)piperidin-1-yl)sulfonyl)-6,7-dihydro-5H-pyrazolo[5,1-b][1,3]oxazine] the figure was 1460 nM; with `CO[C@@H]1CN(S(=O)(=O)c2cnn(C)c2Cl)CC[C@H]1c1cn2ncnc2cc1C` (single isomer, unassigned) [Compound 459], 268 nM; with `CO[C@H]1CN(S(=O)(=O)c2cnn(C)c2Cl)CC[C@@H]1c1cn2ncnc2cc1C` (single isomer, unassigned) [Compound 460], greater than 10000 nM.
Same read-out and setting: with `COc1c(S(=O)(=O)N2CCC(c3cn4ncnc4cc3Cl)CC2)c(I)nn1C` (single isomer, unassigned) [Compound 625, 7-Chloro-6-(1-((3-iodo-5-methoxy-1-methyl-1H-pyrazol-4-yl)sulfonyl)piperidin4-yl)-[1,2,4]triazolo[1,5-a]pyridine] the figure was 27 nM; with `COc1nn(C)c(I)c1S(=O)(=O)N1CCC(c2cn3ncnc3cc2Cl)CC1` (single isomer, unassigned) [Compound 626, 7-chloro-6-(1-((5-iodo-3-methoxy-1-methyl-1H-pyrazol-4-yl)sulfonyl)piperidin-4-yl)-[1,2,4]triazolo[1,5-a]pyridine], 37 nM.
On to `O=S(=O)(c1ccc2ncsc2c1)N1CCC(c2ccncc2)CC1` [Compound 1, 6-((4-(pyridin-4-yl)piperidin-1-yl)sulfonyl)benzo[d]thiazole], for which the IC50 under setting [1] was greater than 10000 nM.
With `O=S(=O)(c1ccc2c(c1)CCO2)N1CCC(c2ccncc2)CC1` [Compound 2, 4-(1-((2,3-dihydrobenzofuran-5-yl)sulfonyl)piperidin-4-yl)pyridine], under setting [1], the IC50 is greater than 10000 nM.
The same measure, in the same setting: with `O=S(=O)(c1ccc2c(c1)CCO2)N1CCC(c2nc3ccccc3[nH]2)CC1` [Compound 3, 2-(1-((2,3-dihydrobenzofuran-5-yl)sulfonyl)piperidin-4-yl)-1H-benzo[d]imidazole] the figure was greater than 10000 nM.
Turning to `O=S(=O)(c1ccc2c(c1)CCO2)N1CCC(c2cc(-c3ccco3)n[nH]2)CC1` [Compound 4, 1-((2,3-dihydrobenzofuran-5-yl)sulfonyl)-4-(3-(furan-2-yl)-1H-pyrazol-5-yl)piperidine], under setting [1], the IC50 was greater than 10000 nM.
On the same count and under the same terms, with `O=S(=O)(c1ccc2c(c1)CCO2)N1CCC(c2nc3cc(F)ccc3[nH]2)CC1` [Compound 5, 2-(1-((2,3-dihydrobenzofuran-5-yl)sulfonyl)piperidin-4-yl)-5-fluoro-in-benzo[d]imidazole] the figure was greater than 10000 nM; with `O=S(=O)(c1ccc2ncsc2c1)N1CCC(c2cc(-c3ccco3)n[nH]2)CC1` [Compound 6, 6-((4-(3-(furan-2-yl)-1H-pyrazol-5-yl)piperidin-1-yl)sulfonyl)benzo[d]thiazole], greater than 10000 nM; with `Cn1cnc2cc(C3CCN(S(=O)(=O)c4ccc5c(c4)CCO5)CC3)ccc21` [Compound 7, 5-(1-((2,3-dihydrobenzofuran-5-yl)sulfonyl)piperidin-4-yl)-1-methyl-1H-benzo[d]imidazole], greater than 10000 nM.
As to `Cn1cnc2cc(C3CCN(S(=O)(=O)c4ccc5ncsc5c4)CC3)ccc21` [Compound 8, 6-((4-(1-methyl-1-benzo[d]imidazol-5-yl)piperidin-1-yl)sulfonyl)benzo[d]thiazole], the half-maximal inhibitory concentration (IC50) under setting [1] is greater than 10000 nM.
For the molecule `O=S(=O)(c1ccc2ncsc2c1)N1CCC(c2cn3ccccc3n2)CC1` [Compound 9, 6-((4-(imidazo[1,2-a]pyridin-2-yl)piperidin-1-yl)sulfonyl)benzo[d]thiazole], the 50% inhibitory concentration (IC50) under setting [1] is greater than 10000 nM.
Same read-out and setting: as for `O=S(=O)(c1ccc2c(c1)CCO2)N1CCC(c2cn3ccccc3n2)CC1` [Compound 10, 2-(1-((2,3-dihydrobenzofuran-5-yl)sulfonyl)piperidin-4-yl)imidazo[1,2-a]pyridine], the figure is 2300 nM; as for `O=S(=O)(c1ccc2ncsc2c1)N1CCC(c2nc3cccnc3s2)CC1` [Compound 11, 2-(1-(benzo[d]thiazol-6-ylsulfonyl)piperidin-4-yl)thiazolo[5,4-b]pyridine], greater than 10000 nM; as for `O=S(=O)(c1ccc2c(c1)CCO2)N1CCC(c2nc3cccnc3s2)CC1` [Compound 12, 2-(1-((2,3-dihydrobenzofuran-5-yl)sulfonyl)piperidin-4-yl)thiazolo[5,4-b]pyridine], greater than 10000 nM.
For `O=S(=O)(c1ccc2c(c1)CCO2)N1CCC(c2cc3ccncc3s2)CC1` [Compound 13, 2-(1-((2,3-dihydrobenzofuran-5-yl)sulfonyl)piperidin-4-yl)thieno[2,3-c]pyridine], the IC50 under setting [1] was greater than 10000 nM.
Still for that read-out and setting: with `O=S(=O)(c1ccc2c(c1)CCO2)N1CCC(c2cc3cnccc3s2)CC1` [Compound 14, 2-(1-((2,3-dihydrobenzofuran-5-yl)sulfonyl)piperidin-4-yl)thieno[3,2-c]pyridine] the figure was greater than 10000 nM.
